Measured values published in a melting point compilation (Tetko et al.; mined from patent text by program, amines drawn as free bases though some values may be those of a salt).

Compound	melting point [°C]
CNCC(O)c1cn(C(c2ccccc2)(c2ccccc2)c2ccccc2)cn1 (stereo not given)	169 to 171
CC(=O)NCSC[C@H](NC(=O)OC(C)(C)C)C(=O)O	110 to 112
O[C@H](CCc1cccnc1)COc1ccc(-c2ccc(Cl)cc2)cc1	117 to 118
COC1=C(OC)C(=O)C(CCC(=O)N2CCC[C@H]2C(=O)O)=C(C)C1=O	131
Nc1ncc(-c2ccccc2)c(N)n1	162 to 164
CN1C(=O)CCC2(C)c3ccc(C(=O)c4ccccc4Cl)cc3CCC12 (stereo not given)	105 to 115
NC(=O)CCCSc1nccc(NC(N)=NCC(F)(F)F)n1	202 to 203
CC(C)(CNC(=O)CSCC(=O)O)SN=O	47 to 51
c1ccc(N(c2ccccc2)c2ccc(N(c3ccccc3)c3ccccc3)cc2)cc1	200 to 202
Cc1cn(C2OC(COC(=O)c3ccccc3)C(OC(=O)c3ccccc3)C2OC(=O)c2ccccc2)c(=O)[nH]c1=O (stereo not given)	90
CC(C)(CCC(=O)N[C@H](Cc1ccccc1)C(=O)NCCCCNC(=N)N)C(=O)O	169
CCc1cc(C(C)=O)c(O)cc1OCCCCCn1cncn1	87
COc1cccc(CC(=O)O)c1OCCCc1ccc(OC(C)C)cc1Oc1ncc(C(F)(F)F)cc1Cl	100 to 101
CCCCNC(=O)c1cn2nc(N3CCN(C(=O)c4ccccc4C(F)(F)F)CC3)ccc2n1	187 to 189
O=C1CN(c2nccc(Oc3ccc(NC(=O)c4cc(F)cc(N5CCOCC5)c4)c4ccccc34)n2)CCN1	108 to 110
CC(C)(C)OC(=O)[C@@H]1N(S(=O)(=O)c2ccc(O)cc2)CCSC1(C)C	171
CC1NC(=O)NN=C1c1ccccc1O (stereo not given)	257 to 261
CCn1ccc(-c2cccc(-c3ccnc4c(C(=O)c5cccs5)cnn34)c2)n1	61
CCN1C(=O)C(C)(C)C(=O)N(C)c2cc(CCCN(CCn3ccc4ccoc4c3=O)Cc3cccnc3C)ccc21	106 to 115
COC(=O)c1[nH]c2ccccc2c1Oc1ccccc1N	183 to 184
CC(C)c1cccc(C(C)C)c1NC(=O)C1c2ccccc2COc2ccc([N+](=O)[O-])cc21 (stereo not given)	186 to 188
Oc1ccc(-c2noc3ccc(O)cc23)cc1	266 to 268
CCOC(=O)C(C(=O)OCC)c1c(Br)cnc2c([N+](=O)[O-])cccc12	94 to 95
CN1C(=O)CC[C@]2(C)c3ccc(NC(=O)c4ccc([N+](=O)[O-])cc4)cc3CC[C@@H]12	269 to 270
O=C(O)c1ccc(/C=C/C(=O)c2ccc(-c3cccs3)cc2)cc1	260 to 265

Compound	melting point [°C]
CCn1c(=O)c2conc2n(C)c1=O	87 to 88
O=P(CCc1ccccc1)(OCc1ccccc1)OCc1ccccc1	48 to 49
COc1ccc(-c2ccc(C(=O)O)cc2)c2c1OCCO2	281 to 284
OC(c1cccnn1)c1ccc(Cl)cc1Cl (stereo not given)	130 to 132
N#Cc1cnc2c(c1Nc1ccc(Cl)cc1Br)C=C1N=CN=C1C2	244 to 246
O=C(O)c1ccc(C#Cc2cc(C#Cc3ccc(C(=O)O)cc3)cc(C#Cc3ccc(C(=O)O)cc3)c2)cc1	218
Nc1cnc(Cl)c(Cl)c1	110 to 113
CCc1nn(C2CN(C(C)C)C2)c(C(N)=O)c1NC(=O)c1cc(S(C)(=O)=O)ccc1OCC(C)C	185 to 189
CC(=O)N1CCN(c2ccc(Nc3nc(N)c(C(=O)c4sccc4C)s3)cc2)CC1	290 to 292
Cc1cc(C)c(S(=O)(=O)NC(CN2CCCc3cc(C)ccc32)C(F)(F)F)c(C)c1 (stereo not given)	143 to 144
NC(=O)c1ccc(F)c(O)c1F	161 to 162
OCc1c(F)c(Cl)c(F)c(Cl)c1F	67 to 68
Nc1c(O)c(Br)cc(Br)c1C(=O)O	162 to 164
CC(C)(C)n1ncc(N)c(Cl)c1=O	194 to 198
CCc1ccc2ncc(-c3nnn[nH]3)c(=O)n2c1	289 to 290
C#CCOC(=O)c1ncn2c1CN(C)C(=O)c1cc(F)ccc1-2	220 to 222
CNC(=O)C#CCc1ccc(OC)cc1	123 to 124
CCOC(=O)C=Cc1cc(C(C)=O)ccc1OC	90
O=C1OC2CC1(O)CC(O)C2O (stereo not given)	184 to 188
C=CCc1c(F)c(F)c(NN)c(F)c1F	79 to 81
CCCc1cc(=O)oc2c(C=O)c(O)cc(O)c12	236 to 237
CCOC(=O)c1cccc(-c2ccc(Cl)c3cc(CO)sc23)c1	119 to 120
COc1nc(Cl)cnc1N(C(=O)OCC(C)C)S(=O)(=O)c1ccccc1-c1ccc(O)cc1	175 to 177
O=C1NC(=O)C(c2cn3c4c(cccc24)CCC3)C1c1ccc(OCc2ccccc2)cc1 (stereo not given)	91 to 93
NC(=O)c1ccc(C(c2ccccc2)(c2ccccc2)c2ccccc2)cn1	239 to 240

Compound	melting point [°C]
O=c1cc(C(F)(F)C(F)(F)F)nc[nH]1	122 to 126
CNc1ccc2cc(OC)ccc2c1N=O	261
CCOC(=O)n1c2ccccc2c(=O)n1Cc1ccc([N+](=O)[O-])cc1	123 to 124
OC[C@H]1O[C@@H](n2cnc3c(N[C@H]4CC[C@H](O)CC4)nc(Cl)nc32)[C@H](O)[C@@H]1O	203 to 204
COc1c(N2C[C@@H](C)N[C@@H](C)C2)c(F)cc2c(=O)c(C(=O)O)cn([C@@H]3C[C@@H]3F)c12	129 to 131
Cc1ccccc1CCC(=O)N(C)C(C)C(O)c1ccccc1 (stereo not given)	136 to 137
Cc1cccc(-c2sc(N)nc2-c2ccnc(-c3ccc(CN(C)C)cc3)c2)n1	210
CCOC(=O)c1cn(-c2cc(C)on2)cn1	142 to 143
Cc1nnc(NC(=O)C2=C(O)c3ccc4ccccc4c3S(=O)(=O)N2C)s1	252 to 255
Clc1cccc(CNc2ncnc3nc[nH]c23)c1	252
COc1ccc(Oc2ccc(OCc3ccccc3)cc2)c([N+](=O)[O-])c1	88 to 89.5
CS(=O)(=O)c1ccc(C2=C(c3ccc(-c4ccsc4)cc3)C(=O)OC2)cc1	220 to 222
O=C1CCCN(C(=O)c2ccc(Cl)cc2)C(=O)CCc2cc(Cl)ccc21	141 to 143
CC(C)Nc1nc2c(Cl)cccc2n1[C@H]1O[C@@H](CO)[C@H](O)[C@@H]1O	225 to 227
OC(=S)C=Cc1cccc2ccccc12	102 to 103
Cn1c(=O)oc2cc3c(cc21)OCC31C(=O)N(CC2CCCO2)c2ccccc21 (stereo not given)	186 to 187
O=C(Nc1nncs1)c1sc(Nc2ccccc2)c2c1CCc1cnoc1-2	227 to 229
CN1C(=O)C(c2ccc[nH]2)=C(c2cn(C(=O)OC(C)(C)C)c3ccccc23)C1=O	82 to 83
O=C(OCCOCc1ccccc1)c1cc(Oc2ccc(C(F)(F)F)cc2Cl)ccc1[N+](=O)[O-]	85
CC(C)c1ccc(-c2c(Cl)c(CN3C(=O)CCC3=O)nc3sc4c(c23)CCN(Cc2ccccc2)C4)cc1	201 to 202
COc1cccc(Cc2ccc(N)c(C#N)c2)c1	81 to 82
CC(=O)Nc1cccc(Nc2ncnc3[nH]cc(C(=O)c4cccc(F)c4)c23)c1	> 300
CC(=O)c1cc(S)c(Cl)cc1CC(=O)OCF	125 to 126
Cc1ccc2c(c1C#N)c(Sc1ccc(Cl)cc1)c(C)n2CC(=O)O	237 to 238
O=S(=O)(Oc1ccc(-c2cc3ccccc3[nH]2)cc1O)c1ccccc1	158

Compound	melting point [°C]
COc1ccc(CSCCNC(=O)c2c(Cl)cccc2Cl)cc1	80 to 81
CCC(=O)NS(=O)(=O)c1cccc(-c2cc(-c3nc(-c4ccc(C(F)(F)F)cc4)cc(C(F)(F)F)n3)ccn2)c1	144
Cc1cc(O)c(SCc2ccc(Cl)cc2Cl)c(=O)o1	163 to 164
CCn1c2cc(C)ccc2c2ccc3ccccc3c21	104 to 105
C#CCN1C(=O)CCc2cc(Cl)cc(Cl)c21	92 to 95
COCc1nc2c(N)nc3cc(CCCNS(C)(=O)=O)ccc3c2n1CC(C)(C)O	205 to 207
CN(CCCCCCNC(=NCCCOc1cccc(CN2CCCCC2)c1)NC#N)CCN(Cc1ccc(F)cc1)c1ccccn1	58
COc1ccc(CSc2cccc3c2C(=O)c2cccc(SCc4ccc(OC)cc4)c2C3=O)cc1	297 to 299
COC(=S)OCC(COC(=S)OC)OCn1cnc2c(=O)[nH]c(N)nc21	148 to 150
Cn1ncc2nn(-c3cccc(C(F)(F)F)c3)c(=O)c(Cl)c21	156 to 158
CCc1c(CCC(=O)O)ccc2c1OCO2	127 to 128
CCNC(=O)n1ccc2ccccc21	71 to 73
COC(=O)CC1c2cc([N+](=O)[O-])ccc2N(C(C)=O)C1C (stereo not given)	106
CC(=O)N(c1ccc(O)cc1)C(C)C	152 to 153
ClC(c1ccccc1)c1ccc(C2CCCCC2)cc1 (stereo not given)	75
[N-]=[N+]=NCC(O)c1cc(S(N)(=O)=O)ccc1F (stereo not given)	86
CCOC(=O)C(=C1SC(=O)N(CC(=O)O)C1=O)c1csc(NC(C)=O)n1	288 to 290
CCN1C=C(C(=O)OC)C(=O)CC1c1ccc(OC)c(OC)c1 (stereo not given)	134 to 135
COc1ccc(-c2cc(Cc3ccc(OC)c(OC4CCCC4)c3)cn2-c2ccc(S(N)(=O)=O)cc2)cc1	81 to 84
Clc1nc(-c2ccccc2)nc2c1Cc1ccccc1O2	168 to 170
COc1ccc(C(=O)N(C)C)c(-c2ccccc2)c1OC	101 to 102
N=C(Nc1ccc(CCNCc2ccccc2)cc1)c1cccs1	116 to 118
CC(=O)C1Oc2cc3c(cc2O1)=NC(F)(F)N=3	> 220
O=Cc1cn(CCCCO)c2ncccc12	90
CN(c1cc(OCCCS(C)(=O)=O)cc2cc(C(=O)NCC(CN3CCN(S(C)(=O)=O)CC3)SCc3ccccc3)[nH]c12)S(=O)(=O)c1ccccn1 (stereo not given)	195 to 196
